The compounds below were run on Human prostate cancer cell lines (PC-3 cells) (assay: Measurement of cell death-inducing activity (Test Example 1)). Conditions: PC-3, 48 h, 48 hours after addition, tested at 10, 1, 0.1, 0.025 and 0.00625 μmol/L, qualitative evaluation of 10 fields, read-out: Concentration showing the cell death-inducing activity (cell death-inducing rate not less than 40%).
Assay type: cell-based
Procedure: The cell death-inducing activity of the compound represented by the formula (1) or the salt thereof was measured as follows.
Human prostate cancer cell lines (PC-3 cells) were seeded to 6-well plates at 1×10^5 cells/2 mL/well, and cultured in the presence of 5% CO2 at 37° C. for 48 hours. Thereafter, each compound was added thereto so as to provide 10, 1, 0.1, 0.025 and 0.00625 μmol/L. As a control, DMSO was added. After the addition, the cells were continuously cultured for 48 hours. […] When the cell death-inducing rate was not less than 40%, the compound was judged to have the cell death-inducing activity.
Compound `COc1cc(Cl)ccc1-c1nc(C)c(COC(=O)Nc2ccc3c(c2)ncn3C)s1` [Example 13-5] has a minimal effective concentration of 0.1 µM.
For `COc1cc(Cl)ccc1-c1nc(C)c(C(=O)N/N=C/c2cccc3c2ccn3C)s1` [Example 23-95], the minimal effective concentration was 0.1 µM.
Compound `CCc1nc(-c2ccc(Cl)cc2OC)sc1NC(=O)OCc1ccc2c(c1)ncn2CC` [Example 9-164] has a minimal effective concentration of 0.025 µM.
With `CCn1nnc2cc(COC(=O)Nc3sc(-c4ccc(Cl)cc4OC)nc3C)ccc21` [Example 9-24] the minimal effective concentration was 0.00625 µM.
For `COc1ccccc1-c1nc(C)c(C(=O)N/N=C/c2ccc3cc[nH]c3c2)s1` [Example 23-91], the minimal effective concentration was 0.1 µM.
`Cc1ccc(-c2nc(C)c(COC(=O)Nc3ccc4ncsc4c3)s2)c(C)c1` [Example 41-1, Benzothiazol-6-ylcarbamic acid 2-(2,4-dimethylphenyl)-4-methylthiazol-5-ylmethyl ester] showed a minimal effective concentration of 10 µM.
`COc1cc(Cl)ccc1-c1nc(C)c(NC(=O)OCc2ccc3sc(C)nc3c2)s1` [Example 37-1, [2-(4-Chloro-2-methoxyphenyl)-4-methylthiazol-5-yl]carbamic acid 2-methylbenzothiazol-5-ylmethyl ester] gave a minimal effective concentration of 0.1 µM.
In the case of `COc1ccccc1-c1nc(C)c(NC(=O)OCc2ccc(SC)cc2)s1` [Example 9-5], the minimal effective concentration is reported as 10 µM.
For `COc1cc(Cl)ccc1-c1cc(C(=O)N/N=C/c2ccc3c(c2)ncn3C)[nH]n1` [Example 22-10], the minimal effective concentration was 0.1 µM.
`CCc1nc(-c2ccc(C)cc2C)sc1NC(=O)OCc1ccc2c(c1)ncn2CC` [Example 9-166] gave a minimal effective concentration of 0.025 µM.
Work on `COc1cc(C)ccc1-c1cc(COC(=O)Nc2ccc3c(c2)nc2n3CCCC2)sn1` [Example 47-6] yielded a minimal effective concentration of 0.025 µM.
`CCc1nc(-c2ccc(Cl)cc2C)sc1NC(=O)OCc1ccc2c(c1)nc1n2CCC1` [Example 9-349] was tested, and the minimal effective concentration was 0.025 µM.
`CCn1c(C)nc2cc(COC(=O)Nc3sc(-c4ccc(C)cc4OC)nc3C)ccc21` [Example 9-87] gave a minimal effective concentration of 0.025 µM.
`COc1ccc(CN(C)NC(=O)c2sc(-c3ccc(Cl)cc3)nc2C)cc1` [Example 16-2] gave a minimal effective concentration of 10 µM.
`CCn1nc(-c2ccc(Cl)c(Cl)c2)cc1NC(=O)OCc1ccc2c(c1)ncn2C` [Example 9-211] showed a minimal effective concentration of 10 µM.
Work on `COc1ccc(/C=N/NC(=O)c2sc(-c3ccccc3Cl)nc2C)cc1O` [Example 23-2] yielded a minimal effective concentration of 0.1 µM.
`COc1cc(C)ccc1-c1cc(COC(=O)Nc2ccc3c(c2)ncn3C)sn1` [Example 47-3] was tested, and the minimal effective concentration was 0.00625 µM.
In the case of `COc1ccc(/C=N/NC(=O)c2oc(-c3ccccc3OC)nc2C)cc1C` [Example 26-3], the minimal effective concentration is reported as 10 µM.
With `CCn1nc(-c2ccccc2OC)cc1COC(=O)Nc1ccc2c(c1)nc1n2CCOC1` [Example 13-96] the minimal effective concentration was 0.1 µM.
In the case of `CCn1nc(-c2ccc(F)cc2OC)cc1NC(=O)OCc1ccc2c(c1)ncn2CC` [Example 9-220], the minimal effective concentration is reported as 0.1 µM.
`Cn1nc2c(c1NC(=O)OCc1ccc3c(c1)ncn3C)COc1ccccc1-2` [Example 9-320] showed a minimal effective concentration of 10 µM.
In the case of `COc1ccc(NC(=O)OCc2cc(-c3ccc(C)cc3OC)nn2C)cc1F` [Example 13-72], the minimal effective concentration is reported as 1 µM.
`COCCn1cnc2cc(COC(=O)Nc3cc(-c4ccc(Cl)cc4OC)nn3C)ccc21` [Example 9-273] gave a minimal effective concentration of 10 µM.
Work on `CCc1ccccc1-c1nc(C)c(NC(=O)OCc2ccc3c(c2)nc2n3CCCC2)s1` [Example 9-109] yielded a minimal effective concentration of 1 µM.
Compound `Cc1cc(Cl)ccc1-c1nc(C)c(NC(=O)OCc2ccc3c(c2)nc2n3CCOC2)s1` [Example 9-98] has a minimal effective concentration of 0.00625 µM.
With `Cc1ccc(-c2nc(C)c(COC(=O)Nc3ccc4c(c3)nc3n4CCC3)s2)c(C)c1` [Example 13-28] the minimal effective concentration was 0.025 µM.
Work on `COc1ccc(/C=N/NC(=O)c2sc(-c3ccccc3O)nc2C)cc1O` [Example 23-57] yielded a minimal effective concentration of 10 µM.
`CCn1ncc2cc(COC(=O)Nc3cnc(-c4ccccc4OC)s3)ccc21` [Example 9-179] showed a minimal effective concentration of 10 µM.
For `Cc1cc(/C=N/NC(=O)c2cnc(-c3ccccc3C)[nH]2)ccc1O` [Example 25-4, 2-(2-Methylphenyl)-3H-imidazole-4-carboxylic acid[1-(4-hydroxy-3-methylphenyl)methylidene]hydrazide], the minimal effective concentration was 10 µM.
`COc1cc(Cl)ccc1-c1nc(C)c(NC(=O)OCc2ccc3nc(C)c(C)nc3c2)s1` [Example 9-200] was tested, and the minimal effective concentration was 1 µM.
With `CCn1cnc2cc(NC(=O)OCc3sc(-c4ccco4)nc3C)ccc21` [Example 13-57] the minimal effective concentration was 1 µM.
In the case of `COc1cc(Cl)ccc1-c1cc(NC(=O)OCc2ccc3c(c2)ncn3C)n(C)c1` [Example 10-2, [4-(4-Chloro-2-methoxyphenyl)-1-methyl-1H-pyrrol-2-yl]carbamic acid 1-methyl-1H-benzimidazol-5-ylmethyl ester], the minimal effective concentration is reported as 1 µM.
Compound `Cc1ccc(-c2nc(C)c(NC(=O)OCc3ccc4c(c3)ncn4C)s2)cc1` [Example 9-35] has a minimal effective concentration of 0.1 µM.
`COc1ccc(/C=N/NC(=O)c2sc(-c3ccccc3Cl)nc2C)c(Cl)c1O` [Example 23-4] showed a minimal effective concentration of 0.1 µM.
With `Cc1ccccc1-c1ncc(C(=O)N/N=C/c2ccc3c(c2)OCO3)s1` [Example 23-52] the minimal effective concentration was 1 µM.
Compound `Cc1nc(-c2ccc(Cl)cc2)sc1C(=O)N/N=C/c1ccc(OC(F)F)c(O)c1` [Example 23-115] has a minimal effective concentration of 1 µM.
In the case of `CCn1nc(-c2ccccc2OC)cc1COC(=O)Nc1ccc2c(c1)ncn2C` [Example 13-77], the minimal effective concentration is reported as 0.1 µM.
Work on `COc1cccc(-c2nc(C)c(C(=O)N/N=C/c3cc(C)c(O)c(C)c3)s2)c1C` [Example 23-131] yielded a minimal effective concentration of 1 µM.
With `CCn1nc(-c2ccc(F)cc2OC)cc1COC(=O)Nc1ccc2c(c1)nc1n2CCOC1` [Example 13-98] the minimal effective concentration was 0.025 µM.
`Cc1ccc(/C=N/NC(=O)c2sc(-c3ccc(Cl)cc3)nc2C)cc1O` [Example 23-35] showed a minimal effective concentration of 10 µM.
`CCc1nc(-c2ccc(F)cc2OC)sc1NC(=O)OCc1ccc2c(cnn2CC)c1` [Example 9-360] showed a minimal effective concentration of 0.025 µM.
`COc1ccccc1-c1ncc(NC(=O)OCc2ccc3c(c2)ncn3C)s1` [Example 9-178] gave a minimal effective concentration of 10 µM.
`CCn1ncc2cc(COC(=O)Nc3csnc3-c3ccc(Cl)cc3OC)ccc21` [Example 45-7] was tested, and the minimal effective concentration was 0.1 µM.
`Cc1ccc(-c2nc(C)c(NC(=O)OCc3ccc4sc(C)nc4c3)s2)c(C)c1` [Example 37-3] was tested, and the minimal effective concentration was 1 µM.
`Cc1nc(-c2ccc(Cl)cc2)sc1C(=O)N/N=C/c1ccccc1O` [Example 23-59] showed a minimal effective concentration of 10 µM.
Work on `COc1cc(Cl)ccc1-c1nc(C)c(NC(=O)OCc2ccc3c(cnn3C)c2)s1` [Example 9-128] yielded a minimal effective concentration of 0.00625 µM.
With `Cc1ccc(-c2nc(C)c(C(=O)N/N=C/c3ccc(O)c(C)c3)s2)c(C)c1` [Example 23-45] the minimal effective concentration was 1 µM.
Compound `Cc1cc(F)ccc1-c1cc(NC(=O)OCc2ccc3c(c2)nc2n3CCOC2)n(C)n1` [Example 9-253] has a minimal effective concentration of 0.1 µM.
Compound `COc1cc(Cl)ccc1-c1nc(C)c(COC(=O)Nc2ccc3c(c2)nc2n3C(C)CCC2)s1` (centres unmarked) [Example 13-36] has a minimal effective concentration of 10 µM.
For `COc1ccc(/C=N/NC(=O)Cc2sc(-c3ccc(Cl)cc3OC)nc2C)cc1` [Example 29-1, [2-(4-Chloro-2-methoxyphenyl)-4-methylthiazol-5-yl]acetic acid[1-(4-methoxyphenyl)methylidene]hydrazide], the minimal effective concentration was 1 µM.
With `CCn1nc(-c2ccccc2OC)cc1NC(=O)OCc1ccc2nn(C)cc2c1` [Example 9-289] the minimal effective concentration was 1 µM.
`CCn1cnc2cc(NC(=O)OCc3cc(-c4ccccc4OC)ns3)ccc21` [Example 47-10] was tested, and the minimal effective concentration was 10 µM.
With `CCn1nc2c(c1NC(=O)OCc1ccc3c(c1)ncn3C)COc1ccccc1-2` [Example 9-321] the minimal effective concentration was 10 µM.
Compound `COc1ccccc1-c1cc(NC(=O)OCc2ccc3c(c2)nc2n3CCC2)n(C)n1` [Example 9-254] has a minimal effective concentration of 1 µM.
`CCn1nc(-c2ccc(C)cc2C)cc1NC(=O)OCc1ccc2c(c1)nc(C)n2C` [Example 9-240] was tested, and the minimal effective concentration was 1 µM.
`Cc1nc(-c2ccc(F)cc2F)sc1NC(=O)OCc1ccc2c(c1)ncn2C` [Example 9-46] was tested, and the minimal effective concentration was 0.1 µM.
`CCn1nc(-c2ccc(C)cc2C)cc1COC(=O)Nc1ccc2c(cnn2C)c1` [Example 13-132] gave a minimal effective concentration of 1 µM.
For `COc1cc(Cl)ccc1-c1nc(C)c(NC(=O)OCc2ccc3c(c2)nc2n3CCOC2)s1` [Example 9-93], the minimal effective concentration was 0.00625 µM.
`CCc1nc(-c2ccc(F)cc2OC)sc1NC(=O)OCc1ccc2c(c1)nc1n2CCOC1` [Example 9-357] gave a minimal effective concentration of 0.025 µM.
Work on `CCn1nc(-c2ccccc2OC)cc1COC(=O)Nc1ccc2c(c1)nc1n2CCCC1` [Example 13-115] yielded a minimal effective concentration of 0.1 µM.
For `COc1cc(F)ccc1-c1nc(C)c(NC(=O)OCc2ccc3c(c2)ncn3C(C)C)s1` [Example 9-70], the minimal effective concentration was 0.1 µM.
Work on `CCc1ccccc1-c1nc(C)c(NC(=O)OCc2ccc3nn(C)cc3c2)s1` [Example 9-142] yielded a minimal effective concentration of 0.1 µM.
Compound `COc1cc(C)ccc1-c1nc(C)c(NC(=O)OCc2ccc3c(c2)nc2n3CCNC2)s1` [Example 39-1, [2-(2-Methoxy-4-methylphenyl)-4-methylthiazol-5-yl]carbamic acid 1,2,3,4-tetrahydrobenzo[4,5]imidazo[1,2-a]pyrazin-8-ylmethyl ester] has a minimal effective concentration of 0.1 µM.
With `COc1ccc(CN(C)NC(=O)c2sc(-c3ccc(Cl)cc3Cl)nc2C)cc1` [Example 16-10] the minimal effective concentration was 1 µM.
`COc1cc(F)ccc1-c1nc(C)c(NC(=O)OCc2ccc3c(c2)nc2n3C(C)CCC2)s1` (centres unmarked) [Example 9-116] gave a minimal effective concentration of 10 µM.

Reference: US9200008B2 (ASKA PHARMACEUTICAL CO., LTD., priority 2010, dated 2015)
